Experimental data: ChEMBL document CHEMBL1201862, “PubChem BioAssay data set” (2004)
Active and inactive are the calls of the source.

What was measured:
[1] = Shn3 3'UTR reporter inhibitors, dose response, cell-based, Clone20 osteoblasts, firefly luciferase, cherry-picked (AID 624132); format: functional;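 note: firefly luciferase luminescence from reporter carrying the Shn3 3'UTR in osteoblasts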
[2] = test system: Streptococcus sp. 'group A'; test: growth inhibition of control SK(-) GAS strain, dose response, counter-screen for streptokinase expression inhibitor project, luminescence, kanamycin, BacTiterGlo, confirmation (AID 1900); format: functional, organism-based
[3] = HIV-1 Env-mediated cell fusion inhibitors, dose response, CCR5-tropic Env (AID 2279); format: functional
Ion channel NompC = Ion channel NompC (Danio rerio, UniProt Q7T1G6); test: Dose response cell-based high-throughput screening assay for agonists of the transient receptor potential channel N1 (TRPN1). [Related pubchem assays (depositor defined):AID1424, AID1448]; format: functional
Ion channel NompC, sequence (Q7T1G6 whole entry): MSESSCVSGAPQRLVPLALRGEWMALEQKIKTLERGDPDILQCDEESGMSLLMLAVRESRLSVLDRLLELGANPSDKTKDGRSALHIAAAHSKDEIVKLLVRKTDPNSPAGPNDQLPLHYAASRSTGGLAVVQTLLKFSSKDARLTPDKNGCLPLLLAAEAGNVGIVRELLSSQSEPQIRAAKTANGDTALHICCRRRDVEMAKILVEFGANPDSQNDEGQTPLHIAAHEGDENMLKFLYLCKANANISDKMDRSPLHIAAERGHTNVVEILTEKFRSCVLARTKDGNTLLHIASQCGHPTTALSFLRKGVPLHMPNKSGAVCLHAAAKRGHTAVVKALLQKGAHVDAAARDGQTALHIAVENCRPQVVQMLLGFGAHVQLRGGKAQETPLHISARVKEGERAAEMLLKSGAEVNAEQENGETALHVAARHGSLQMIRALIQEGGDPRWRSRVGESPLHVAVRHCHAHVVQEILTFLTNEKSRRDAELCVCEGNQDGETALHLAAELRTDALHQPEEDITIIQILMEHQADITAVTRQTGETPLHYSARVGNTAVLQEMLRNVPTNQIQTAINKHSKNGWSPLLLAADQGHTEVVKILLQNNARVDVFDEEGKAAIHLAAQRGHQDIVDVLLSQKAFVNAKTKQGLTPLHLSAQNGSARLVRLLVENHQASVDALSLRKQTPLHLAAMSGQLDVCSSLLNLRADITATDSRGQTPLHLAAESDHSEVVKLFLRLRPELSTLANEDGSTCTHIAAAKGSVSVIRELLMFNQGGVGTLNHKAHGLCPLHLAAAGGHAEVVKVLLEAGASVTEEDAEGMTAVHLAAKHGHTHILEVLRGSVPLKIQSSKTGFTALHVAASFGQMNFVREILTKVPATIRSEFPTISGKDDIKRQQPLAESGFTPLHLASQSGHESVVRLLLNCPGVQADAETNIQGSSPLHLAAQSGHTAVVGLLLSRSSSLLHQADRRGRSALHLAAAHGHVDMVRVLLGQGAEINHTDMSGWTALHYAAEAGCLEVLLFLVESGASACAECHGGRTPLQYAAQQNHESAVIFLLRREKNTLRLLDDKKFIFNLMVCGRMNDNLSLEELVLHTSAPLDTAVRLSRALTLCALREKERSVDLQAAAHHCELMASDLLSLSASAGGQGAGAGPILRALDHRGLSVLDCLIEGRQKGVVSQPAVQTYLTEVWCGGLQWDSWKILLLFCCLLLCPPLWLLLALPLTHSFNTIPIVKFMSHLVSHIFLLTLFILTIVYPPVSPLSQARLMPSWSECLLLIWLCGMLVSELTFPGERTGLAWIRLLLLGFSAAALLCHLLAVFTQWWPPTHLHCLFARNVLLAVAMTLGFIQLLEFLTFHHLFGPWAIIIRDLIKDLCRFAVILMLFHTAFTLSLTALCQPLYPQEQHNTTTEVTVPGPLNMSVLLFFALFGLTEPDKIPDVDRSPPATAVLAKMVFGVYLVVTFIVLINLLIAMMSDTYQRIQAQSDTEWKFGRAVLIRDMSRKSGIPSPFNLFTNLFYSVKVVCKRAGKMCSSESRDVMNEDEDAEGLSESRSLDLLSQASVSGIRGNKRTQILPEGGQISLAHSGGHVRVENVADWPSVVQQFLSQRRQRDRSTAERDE

Mucolipin-3 = target: T1, Mucolipin-3 (Homo sapiens, UniProt Q8TDD5); test: Fluorescence counterscreen assay for […] agonists: dose response cell-based high-throughput screening assay to identify agonists of the transient receptor potential channel ML3 (TRPML3). [Related pubchem assays: 1424, 1448 ]; format: functional
T1 sequence (Q8TDD5 whole entry): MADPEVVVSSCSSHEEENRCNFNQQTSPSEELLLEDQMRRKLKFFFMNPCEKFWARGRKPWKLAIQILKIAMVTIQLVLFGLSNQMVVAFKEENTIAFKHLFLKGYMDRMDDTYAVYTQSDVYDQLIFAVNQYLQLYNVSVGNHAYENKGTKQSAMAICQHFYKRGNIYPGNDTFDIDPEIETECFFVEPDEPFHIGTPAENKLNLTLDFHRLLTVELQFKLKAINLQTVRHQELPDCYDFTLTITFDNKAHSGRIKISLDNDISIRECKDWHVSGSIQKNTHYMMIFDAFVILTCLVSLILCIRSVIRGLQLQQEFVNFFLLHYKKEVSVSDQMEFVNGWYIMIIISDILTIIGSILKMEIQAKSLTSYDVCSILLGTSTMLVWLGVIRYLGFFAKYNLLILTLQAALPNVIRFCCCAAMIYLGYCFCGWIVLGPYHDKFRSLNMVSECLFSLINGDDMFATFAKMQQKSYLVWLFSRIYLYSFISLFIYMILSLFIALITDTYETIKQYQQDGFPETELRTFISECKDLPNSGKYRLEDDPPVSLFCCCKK

[4] = control 3'UTR Renilla luciferase suppression, dose response, counter-screen for Shn3 inhibitor project, cell-based, Clone20-Shn3RL, cherry-picked (AID 624133); format: functional
[5] = HepG2 cell cytotoxicity, dose response, cytotoxicity control for Shn3 inhibitor project, CellTiter-Glo, cherry-picked (AID 624134); format: functional, cell-based
[6] = Luminescence Cell-Based Dose Retest to Confirm Inhibitors of Cancer Stem Cells. [Related pubchem assays (depositor defined):AID2717, AID2721]; format: functional; settings: Homo sapiens
Streptokinase A = target: T2, Streptokinase A (Streptococcus pyogenes serotype M1, UniProt P10520); test: S. pyogenes streptokinase expression inhibitors, potency, dose response, plasminogen activation absorbance, OD405 (AID 1914); format: functional, Streptococcus pyogenes M1 GAS;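 note: secreted streptokinase activity via plasminogen activation per viability signal from cell pellet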
T2 sequence (P10520 whole entry): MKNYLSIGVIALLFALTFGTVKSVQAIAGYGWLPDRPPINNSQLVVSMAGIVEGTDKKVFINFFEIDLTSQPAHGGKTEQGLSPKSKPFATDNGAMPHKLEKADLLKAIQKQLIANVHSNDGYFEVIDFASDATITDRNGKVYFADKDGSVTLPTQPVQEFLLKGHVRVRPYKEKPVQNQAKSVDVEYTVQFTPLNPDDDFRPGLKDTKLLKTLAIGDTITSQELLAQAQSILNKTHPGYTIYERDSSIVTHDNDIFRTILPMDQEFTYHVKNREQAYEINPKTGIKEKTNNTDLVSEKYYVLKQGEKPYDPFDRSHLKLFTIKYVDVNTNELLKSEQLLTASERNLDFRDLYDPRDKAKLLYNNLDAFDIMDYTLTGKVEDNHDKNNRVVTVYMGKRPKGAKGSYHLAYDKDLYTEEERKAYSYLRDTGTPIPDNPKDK

Streptococcus = test: Group A Streptococcus viability loss, dose response, counter-screen for streptokinase expression inhibitor project, luminescence, BacTiterGlo (AID 1915); format: functional, organism-based;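 note: potency for reduction of bacterial viability or growth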
[7] = target: Eukaryotic translation initiation factor 4E (Mus musculus, UniProt P63073); test: eIF4E–eIF4G protein interaction inhibitors, dose response, biochemical, TR-FRET (AID 855); format: functional;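 note: potency for disrupting eIF4E binding to eIF4GI seen as loss of FRET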
Eukaryotic translation initiation factor 4E, sequence (P63073 whole entry, the tested form may be a part): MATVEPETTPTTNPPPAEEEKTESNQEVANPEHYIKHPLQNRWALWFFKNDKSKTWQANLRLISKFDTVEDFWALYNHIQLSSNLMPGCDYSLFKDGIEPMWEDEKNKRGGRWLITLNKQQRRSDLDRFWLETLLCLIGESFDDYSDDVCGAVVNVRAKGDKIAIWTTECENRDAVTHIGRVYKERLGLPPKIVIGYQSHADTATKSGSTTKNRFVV

[8] = target: T3, Carboxy-terminal domain RNA polymerase II polypeptide A small phosphatase 1 (Homo sapiens, UniProt Q9GZU7); test: inhibitors of CTDSP1, concentration-response testing, biochemical assay, absorbance-based, actives from ultra-high-throughput screening (AID 540297); format: functional
T3 sequence (Q9GZU7 whole entry): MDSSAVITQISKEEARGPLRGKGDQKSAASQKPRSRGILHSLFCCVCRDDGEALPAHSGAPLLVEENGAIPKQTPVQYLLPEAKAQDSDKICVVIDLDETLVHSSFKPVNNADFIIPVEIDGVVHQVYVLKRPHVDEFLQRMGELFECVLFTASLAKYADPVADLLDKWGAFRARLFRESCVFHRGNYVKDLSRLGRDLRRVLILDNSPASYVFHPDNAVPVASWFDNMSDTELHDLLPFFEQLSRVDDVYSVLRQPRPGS

[9] = target: T4, Ubiquitin-conjugating enzyme E2 N (Homo sapiens, UniProt P61088); format: functional
T4 sequence (P61088 whole entry): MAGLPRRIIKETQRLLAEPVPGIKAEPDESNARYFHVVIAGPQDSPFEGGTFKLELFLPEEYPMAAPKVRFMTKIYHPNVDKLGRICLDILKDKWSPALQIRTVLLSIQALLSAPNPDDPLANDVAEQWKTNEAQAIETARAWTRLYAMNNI

[10] = target: T4, Ubiquitin-conjugating enzyme E2 N; format: functional; remark: listed apart in the source
Bcl-2-related protein A1 = target: T5, Bcl-2-related protein A1 (Mus musculus, UniProt Q07440); format: functional;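 note: confirmatory dose–response counterscreen on Bfl-1, used to check hits from a UBC13 polyubiquitin inhibitor campaign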
T5 sequence (Q07440 whole entry): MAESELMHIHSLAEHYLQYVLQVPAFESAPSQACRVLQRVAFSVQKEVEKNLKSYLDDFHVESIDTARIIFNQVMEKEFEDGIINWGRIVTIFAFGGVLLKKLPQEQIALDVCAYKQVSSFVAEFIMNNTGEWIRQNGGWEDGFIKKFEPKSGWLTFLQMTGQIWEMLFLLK

[11] = target: Alkaline phosphatase, placental type (Homo sapiens, UniProt P05187); test: PLAP enzyme inhibitors, confirmation, biochemical, luminescence (AID 1512); format: functional
Alkaline phosphatase, placental type, sequence (P05187 whole entry): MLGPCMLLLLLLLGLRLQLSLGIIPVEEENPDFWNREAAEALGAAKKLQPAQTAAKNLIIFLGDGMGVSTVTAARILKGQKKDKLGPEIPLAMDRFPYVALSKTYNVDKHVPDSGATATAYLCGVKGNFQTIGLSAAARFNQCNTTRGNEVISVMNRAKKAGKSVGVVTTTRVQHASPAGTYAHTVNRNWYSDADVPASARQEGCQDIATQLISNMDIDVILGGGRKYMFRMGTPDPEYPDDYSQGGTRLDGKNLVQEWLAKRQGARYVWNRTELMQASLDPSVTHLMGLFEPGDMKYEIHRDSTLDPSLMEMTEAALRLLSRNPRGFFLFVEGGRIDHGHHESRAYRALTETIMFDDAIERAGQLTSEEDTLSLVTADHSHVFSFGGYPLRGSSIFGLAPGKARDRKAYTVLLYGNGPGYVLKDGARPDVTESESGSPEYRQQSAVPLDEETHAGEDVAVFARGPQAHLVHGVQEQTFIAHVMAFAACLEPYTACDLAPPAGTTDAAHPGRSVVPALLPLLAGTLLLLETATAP

[12] = target: T6, Alkaline phosphatase, tissue-nonspecific isozyme (Homo sapiens, UniProt P05186); test: human TNAP enzyme inhibitors, SAR follow-up, biochemical, luminescent, dose response (AID 1056)
T6 sequence (P05186 whole entry): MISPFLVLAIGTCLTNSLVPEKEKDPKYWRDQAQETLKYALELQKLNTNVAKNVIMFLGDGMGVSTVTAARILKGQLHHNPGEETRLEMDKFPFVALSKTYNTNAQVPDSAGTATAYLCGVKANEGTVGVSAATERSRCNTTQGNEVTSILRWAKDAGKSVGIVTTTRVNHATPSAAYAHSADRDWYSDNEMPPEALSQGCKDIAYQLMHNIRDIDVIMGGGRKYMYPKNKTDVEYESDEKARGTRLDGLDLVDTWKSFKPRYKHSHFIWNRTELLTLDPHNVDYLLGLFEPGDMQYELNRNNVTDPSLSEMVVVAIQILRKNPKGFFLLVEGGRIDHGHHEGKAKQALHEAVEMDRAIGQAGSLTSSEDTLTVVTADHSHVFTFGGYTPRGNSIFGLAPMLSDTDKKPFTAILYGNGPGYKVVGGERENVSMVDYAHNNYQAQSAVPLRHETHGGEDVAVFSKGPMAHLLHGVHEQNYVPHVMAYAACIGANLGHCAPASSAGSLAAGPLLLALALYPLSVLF

[13] = target: Mannose-6-phosphate isomerase (Homo sapiens, UniProt P34949); test: human PMI inhibitors, high substrate, primary screen, biochemical, fluorescence intensity, high mannose 6-phosphate (AID 1220)
Mannose-6-phosphate isomerase, sequence (P34949 whole entry): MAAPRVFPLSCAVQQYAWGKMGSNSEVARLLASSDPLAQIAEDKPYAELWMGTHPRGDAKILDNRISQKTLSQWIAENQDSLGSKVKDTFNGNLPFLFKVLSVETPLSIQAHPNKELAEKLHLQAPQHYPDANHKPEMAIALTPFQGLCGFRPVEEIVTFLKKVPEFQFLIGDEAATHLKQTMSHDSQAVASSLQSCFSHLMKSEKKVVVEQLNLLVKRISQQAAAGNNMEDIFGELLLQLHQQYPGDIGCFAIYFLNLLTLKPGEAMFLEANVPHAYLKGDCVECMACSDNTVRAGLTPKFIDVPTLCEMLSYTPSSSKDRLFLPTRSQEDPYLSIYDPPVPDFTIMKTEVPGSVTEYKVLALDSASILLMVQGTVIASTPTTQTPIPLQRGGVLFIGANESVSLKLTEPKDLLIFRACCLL

[14] = target: G-protein coupled receptor 55 (Homo sapiens, UniProt Q9Y2T6); test: GPR55 antagonists blocking LPI-driven arrestin recruitment, primary screen, imaging, U2OS, beta-arrestin-GFP, LPI agonist (AID 2013); format: functional;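 note: antagonist potency measured as reduced agonist-driven arrestin aggregation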
G-protein coupled receptor 55, sequence (Q9Y2T6 whole entry): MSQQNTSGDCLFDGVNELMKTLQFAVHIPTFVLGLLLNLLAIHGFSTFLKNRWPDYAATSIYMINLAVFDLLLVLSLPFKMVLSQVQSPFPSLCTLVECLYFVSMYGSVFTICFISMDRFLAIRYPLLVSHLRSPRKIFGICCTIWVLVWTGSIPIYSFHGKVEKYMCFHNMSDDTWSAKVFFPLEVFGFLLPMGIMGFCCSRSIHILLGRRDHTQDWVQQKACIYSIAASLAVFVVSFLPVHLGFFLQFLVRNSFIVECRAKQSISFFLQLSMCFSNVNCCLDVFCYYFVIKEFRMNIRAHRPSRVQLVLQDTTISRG

Caspase-3 = target: T7, Caspase-3 (Homo sapiens, UniProt P42574); test: procaspase-3 activators, dose response, biochemical, absorbance (AID 489014)
T7 sequence (P42574 whole entry): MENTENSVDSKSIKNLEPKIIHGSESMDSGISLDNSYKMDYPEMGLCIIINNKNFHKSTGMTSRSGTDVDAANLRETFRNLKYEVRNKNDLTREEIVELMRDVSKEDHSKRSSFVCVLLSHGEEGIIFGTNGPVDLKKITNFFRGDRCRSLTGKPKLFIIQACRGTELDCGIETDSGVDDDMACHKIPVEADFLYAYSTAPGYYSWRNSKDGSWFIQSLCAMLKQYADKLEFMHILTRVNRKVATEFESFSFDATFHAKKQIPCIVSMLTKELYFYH

Caspase-7 = Caspase-7 (Homo sapiens, UniProt P55210); test: procaspase-7 activators, dose response, counter-screen for procaspase-3 activator project, biochemical, absorbance (AID 489013)
Caspase-7, sequence (P55210 24-198 limits assumed): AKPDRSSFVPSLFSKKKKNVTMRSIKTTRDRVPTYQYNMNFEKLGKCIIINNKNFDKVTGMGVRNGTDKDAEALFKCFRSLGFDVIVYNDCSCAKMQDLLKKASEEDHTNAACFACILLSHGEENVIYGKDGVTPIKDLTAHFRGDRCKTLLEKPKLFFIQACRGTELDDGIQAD
Caspase-7, sequence (P55210 207-303 limits assumed): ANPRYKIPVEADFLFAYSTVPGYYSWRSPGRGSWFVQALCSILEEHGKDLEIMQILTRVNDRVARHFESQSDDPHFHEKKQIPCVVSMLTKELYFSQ

Troponin, cardiac muscle = Troponin, cardiac muscle (Homo sapiens, UniProt P19429+P45379+P63316); test: Fluorescence-based biochemical high throughput dose response assay for activators of the calcium sensitivity of cardiac Regulated Thin Filaments (RTF). [Related pubchem assays (depositor defined):AID493008, AID493018, AID504382, AID504383]; format: protein-complex assay
cells [15] = format: functional, cell-based
[16] = inhibitors of intracellular T. cruzi replication, confirmation, NIH3T3 host cells, beta-gal luminescence (AID 2044); format: functional, cell-based;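 note: intracellular parasites grown in NIH/3T3 mouse fibroblasts as host cells; luminescent beta-galactosidase reporter signal from transgenic T. cruzi replicating inside host cells; inhibitors lower the luminescence signal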
[17] = insulin promoter down-regulators in MIN6 cells, imaging, high-content screening, mouse beta cells (AID 1628); format: functional
[18] = cytotoxicity in MIN6 insulinoma cells, dose response, cytotoxicity control, cell-based, mouse insulinoma (AID 2122); format: functional;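 note: confirmatory high-throughput counterscreen run to flag cytotoxic compounds; mouse MIN-6 beta cells carrying an insulin promoter eGFP reporter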
cells [19] = format: functional, cell-based; remark: listed apart in the source
[20] = Vero E6 cell cytotoxicity, dose response, cytotoxicity control for non-replicating M. tuberculosis project, secondary assay (AID 492998); format: functional, VeroE6; settings: Vero C1008
[21] = THP-1 cell cytotoxicity, dose response, cytotoxicity control for non-replicating M. tuberculosis project (AID 489025); format: functional
cells [22] = format: functional
[23] = target: Microphthalmia-associated transcription factor (Homo sapiens, UniProt O75030); test: TRPM1 promoter luciferase signal decrease, dose response, MITF inhibitor project, cell-based, SK-MEL-5, cherry-picked, set 3 (AID 493073); format: functional
Microphthalmia-associated transcription factor, sequence (O75030 whole entry): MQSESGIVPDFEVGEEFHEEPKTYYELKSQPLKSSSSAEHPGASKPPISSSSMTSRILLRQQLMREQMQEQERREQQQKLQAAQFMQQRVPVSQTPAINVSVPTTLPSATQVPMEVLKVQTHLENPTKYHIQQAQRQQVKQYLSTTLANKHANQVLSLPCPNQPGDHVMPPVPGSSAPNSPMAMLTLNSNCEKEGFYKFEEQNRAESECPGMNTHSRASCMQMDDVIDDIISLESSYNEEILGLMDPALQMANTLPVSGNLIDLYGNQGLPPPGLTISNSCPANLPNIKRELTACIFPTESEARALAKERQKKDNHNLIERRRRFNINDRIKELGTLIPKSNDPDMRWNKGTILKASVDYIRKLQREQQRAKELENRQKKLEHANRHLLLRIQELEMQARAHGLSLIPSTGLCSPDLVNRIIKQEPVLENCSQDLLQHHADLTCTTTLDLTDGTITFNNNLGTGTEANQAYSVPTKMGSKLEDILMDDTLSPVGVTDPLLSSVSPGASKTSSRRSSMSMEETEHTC

O=C(Nc1ccccc1Cc1ccccc1)c1ccccc1NS(=O)(=O)c1ccc(Cl)s1
AC50 [1]: 8.18 µM (active) | EC50 [2]: 0.659 µM (active) | IC50 [3]: 2.17 µM (active) | EC50 (Ion channel NompC): > 29.9 µM (inactive) | EC50 (Mucolipin-3): 24.3 µM (not active) | AC50 [4]: 18.2 µM (active) | AC50 [5]: 14.7 µM (active) | AC50 [6]: 0.706 µM (active) | EC50 (Streptokinase A): > 150 µM (not active) | EC50 (Streptococcus): 4.09 µM (active)

c1ccc2[nH]c(-c3ccnc4ccccc34)nc2c1
IC50 [7]: > 64 µM (inactive) | IC50 [8]: 3.66 µM (active)

COc1ccccc1NC(=O)COc1ccc(C(=O)NCc2ccccc2)cc1OC
IC50 [9]: 13 µM (active) | IC50 [10]: > 20 µM (inactive) | IC50 (Bcl-2-related protein A1): > 20 µM (inactive)

COC(=O)C(N)Cc1ccc(O)c(O)c1 (stereo not drawn)
IC50 [11]: 8.43 µM (active) | IC50 [12]: > 100 µM (inactive) | IC50 [13]: > 50 µM (not active)

COc1cc(OC)c(-n2c(C)cc(C=O)c2C)cc1Cl
IC50 [14]: 4.72 µM (active)

CCCCOn1c(C)c(C(=O)OCC)c2c3nonc3ccc21
EC50 (Caspase-3): > 85.3 µM (inactive) | EC50 (Caspase-7): > 85.3 µM (inactive)

COc1ccc(CCNC(=O)CCNC(=O)c2ccc(Br)cc2)cc1OC
IC50 [7]: > 64 µM (inactive)

Cc1ccc(-c2nnc(SCC(=O)c3ccc(O)c(O)c3)n2-c2ccc(C)cc2)cc1
IC50 [11]: 9.54 µM (active) | IC50 [12]: > 100 µM (inactive)

COc1cc(C(=O)Oc2ccccc2/C=N/NC(=O)c2ccc(Cl)cc2)cc(OC)c1OC
EC50 (Troponin, cardiac muscle): > 71.5 µM (inactive) | EC50 (cells [15]): > 350 µM (not active) | EC50 [16]: 1.31 µM (active) | IC50 [17]: 2.12 µM (active) | IC50 [18]: 1.99 µM (active) | EC50 (cells [19]): 9.29 µM (active)

CCN(CC)c1ccc(/C=N/NC(=S)NCc2ccco2)cc1
EC50 (Caspase-3): > 85.3 µM (inactive) | EC50 (Caspase-7): > 85.3 µM (inactive)

Cc1ccc(C(=O)N/N=C\c2ccc([N+](=O)[O-])s2)cn1
CC50 [20]: 13.1 µM (active) | CC50 [21]: 26.2 µM (active) | IC50 (cells [22]): 4.87 µM (active) | AC50 [23]: 2.95 µM (active)

N#C/C(=C\c1ccccn1)c1nc2ccccc2s1
EC50 (Ion channel NompC): 0.672 µM (active) | EC50 (Mucolipin-3): > 1.11 µM (not active)
